Test system: 299254-011-R-J1-PDC complex spheroid viability
Assay: Anticancer human tumor 299254-011-R-J1-PDC patient-derived melanoma cell line growth inhibition [POLQ]
Details: for IC50: curve of first compound; for viability, T/C: stronger effect = lower value
Summary of the method: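 Growth inhibition in 3D: complex spheroids (tumor PDC, HUVEC, MSC) treated with POLQ inhibitor combinations; where Cmax unknown, highest tested concentration 10 microM, except SN-38 at 1 microM.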

[1] = second compound 0.0316 µM, first compound 0.0316 µM
[2] = second compound 0.0316 µM, first compound 0.1 µM
[3] = second compound 0.0316 µM, first compound 0.316 µM
[4] = second compound 0.0316 µM, first compound 1 µM
[5] = second compound 0.0316 µM, first compound 3.16 µM
[6] = second compound 0.0316 µM, first compound 10 µM
[7] = second compound 0.1 µM, first compound 0.0316 µM
[8] = second compound 0.1 µM, first compound 0.1 µM
[9] = second compound 0.1 µM, first compound 0.316 µM
[10] = second compound 0.1 µM, first compound 1 µM
[11] = second compound 0.1 µM, first compound 3.16 µM
[12] = second compound 0.1 µM, first compound 10 µM
[13] = second compound 0.316 µM, first compound 0.0316 µM
[14] = second compound 0.316 µM, first compound 0.1 µM
[15] = second compound 0.316 µM, first compound 0.316 µM
[16] = second compound 0.316 µM, first compound 1 µM
[17] = second compound 0.316 µM, first compound 3.16 µM
[18] = second compound 0.316 µM, first compound 10 µM
[19] = second compound 1 µM, first compound 0.0316 µM
[20] = second compound 1 µM, first compound 0.1 µM
[21] = second compound 1 µM, first compound 0.316 µM
[22] = second compound 1 µM, first compound 1 µM
[23] = second compound 1 µM, first compound 3.16 µM
[24] = second compound 1 µM, first compound 10 µM
[25] = second compound 3.16 µM, first compound 0.0316 µM
[26] = second compound 3.16 µM, first compound 0.1 µM
[27] = second compound 3.16 µM, first compound 0.316 µM
[28] = second compound 3.16 µM, first compound 1 µM
[29] = second compound 3.16 µM, first compound 3.16 µM
[30] = second compound 3.16 µM, first compound 10 µM
[31] = second compound 10 µM, first compound 0.0316 µM
[32] = second compound 10 µM, first compound 0.1 µM
[33] = second compound 10 µM, first compound 0.316 µM
[34] = second compound 10 µM, first compound 1 µM
[35] = second compound 10 µM, first compound 3.16 µM
[36] = second compound 10 µM, first compound 10 µM
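Further: spheroids exposed to drugs for one week before measurement.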
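Wherever viability, T/C is given: percent viability relative to DMSO vehicle control taken as 100%.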

CC1COCCN1c1cc(C2(S(C)(=N)=O)CC2)nc(-c2ccnc3[nH]ccc23)n1 (stereo unspecified) + Nc1ccc(C#CCN(C(=O)Cc2ncc(C(F)(F)F)cc2C(F)(F)F)c2ccc(F)cc2)nn1
IC50 (second compound 0.0316 µM): 8.31 µM
IC50 (second compound 0.1 µM): 5.12 µM
IC50 (second compound 0.316 µM): 5.54 µM
IC50 (second compound 1 µM): 5.56 µM
IC50 (second compound 3.16 µM): 3.74 µM
IC50 (second compound 10 µM): 2.9 µM
viability, T/C [1]: 123%
viability, T/C [2]: 89.2%
viability, T/C [3]: 110%
viability, T/C [4]: 84.3%
viability, T/C [5]: 63.9%
viability, T/C [6]: 47%
viability, T/C [7]: 117%
viability, T/C [8]: 117%
viability, T/C [9]: 100%
viability, T/C [10]: 83.8%
viability, T/C [11]: 56.3%
viability, T/C [12]: 40.3%
viability, T/C [13]: 107%
viability, T/C [14]: 110%
viability, T/C [15]: 87.3%
viability, T/C [16]: 89.2%
viability, T/C [17]: 63%
viability, T/C [18]: 34.9%
viability, T/C [19]: 105%
viability, T/C [20]: 111%
viability, T/C [21]: 94.4%
viability, T/C [22]: 94.8%
viability, T/C [23]: 59.1%
viability, T/C [24]: 39.8%
viability, T/C [25]: 99%
viability, T/C [26]: 91.8%
viability, T/C [27]: 102%
viability, T/C [28]: 82.1%
viability, T/C [29]: 53.2%
viability, T/C [30]: 35.5%
viability, T/C [31]: 91.5%
viability, T/C [32]: 99.2%
viability, T/C [33]: 84.8%
viability, T/C [34]: 76%
viability, T/C [35]: 46.7%
viability, T/C [36]: 37.1%

COc1ccc([C@@H](O)c2cc(-c3ncnc4cc(N5CCOCC5)ccc34)c(F)cc2Cl)nn1 + Nc1ccc(C#CCN(C(=O)Cc2ncc(C(F)(F)F)cc2C(F)(F)F)c2ccc(F)cc2)nn1
IC50 (second compound 0.0316 µM): > 10 µM
IC50 (second compound 0.1 µM): 9.37 µM
IC50 (second compound 0.316 µM): > 10 µM
IC50 (second compound 1 µM): 9 µM
IC50 (second compound 3.16 µM): > 10 µM
IC50 (second compound 10 µM): > 10 µM
viability, T/C [1]: 116%
viability, T/C [2]: 112%
viability, T/C [3]: 98%
viability, T/C [4]: 105%
viability, T/C [5]: 91.5%
viability, T/C [6]: 50%
viability, T/C [7]: 94.3%
viability, T/C [8]: 89.4%
viability, T/C [9]: 100%
viability, T/C [10]: 105%
viability, T/C [11]: 105%
viability, T/C [12]: 47%
viability, T/C [13]: 106%
viability, T/C [14]: 108%
viability, T/C [15]: 105%
viability, T/C [16]: 104%
viability, T/C [17]: 88.8%
viability, T/C [18]: 54.3%
viability, T/C [19]: 102%
viability, T/C [20]: 98.5%
viability, T/C [21]: 105%
viability, T/C [22]: 106%
viability, T/C [23]: 106%
viability, T/C [24]: 44.4%
viability, T/C [25]: 103%
viability, T/C [26]: 101%
viability, T/C [27]: 96.7%
viability, T/C [28]: 96%
viability, T/C [29]: 81.9%
viability, T/C [30]: 54.4%
viability, T/C [31]: 99.1%
viability, T/C [32]: 93.5%
viability, T/C [33]: 91.1%
viability, T/C [34]: 86.4%
viability, T/C [35]: 80.4%
viability, T/C [36]: 54%

Cn1ncnc1[C@H]1c2n[nH]c(=O)c3cc(F)cc(c23)N[C@@H]1c1ccc(F)cc1 + Nc1ccc(C#CCN(C(=O)Cc2ncc(C(F)(F)F)cc2C(F)(F)F)c2ccc(F)cc2)nn1
IC50 (second compound 0.0316 µM): > 0.1 µM
IC50 (second compound 0.1 µM): > 0.1 µM
IC50 (second compound 0.316 µM): > 0.1 µM
IC50 (second compound 1 µM): > 0.1 µM
IC50 (second compound 3.16 µM): > 0.1 µM
IC50 (second compound 10 µM): > 0.1 µM
viability, T/C (second compound 0.0316 µM, first compound 0.000316 µM): 107%
viability, T/C (second compound 0.0316 µM, first compound 0.001 µM): 101%
viability, T/C (second compound 0.0316 µM, first compound 0.00316 µM): 97.2%
viability, T/C (second compound 0.0316 µM, first compound 0.01 µM): 98.6%
viability, T/C [1]: 99.9%
viability, T/C [2]: 108%
viability, T/C (second compound 0.1 µM, first compound 0.000316 µM): 115%
viability, T/C (second compound 0.1 µM, first compound 0.001 µM): 94%
viability, T/C (second compound 0.1 µM, first compound 0.00316 µM): 111%
viability, T/C (second compound 0.1 µM, first compound 0.01 µM): 95.5%
viability, T/C [7]: 107%
viability, T/C [8]: 101%
viability, T/C (second compound 0.316 µM, first compound 0.000316 µM): 107%
viability, T/C (second compound 0.316 µM, first compound 0.001 µM): 113%
viability, T/C (second compound 0.316 µM, first compound 0.00316 µM): 95.1%
viability, T/C (second compound 0.316 µM, first compound 0.01 µM): 113%
viability, T/C [13]: 125%
viability, T/C [14]: 89.9%
viability, T/C (second compound 1 µM, first compound 0.000316 µM): 107%
viability, T/C (second compound 1 µM, first compound 0.001 µM): 106%
viability, T/C (second compound 1 µM, first compound 0.00316 µM): 102%
viability, T/C (second compound 1 µM, first compound 0.01 µM): 107%
viability, T/C [19]: 102%
viability, T/C [20]: 113%
viability, T/C (second compound 3.16 µM, first compound 0.000316 µM): 103%
viability, T/C (second compound 3.16 µM, first compound 0.001 µM): 103%
viability, T/C (second compound 3.16 µM, first compound 0.00316 µM): 94.4%
viability, T/C (second compound 3.16 µM, first compound 0.01 µM): 105%
viability, T/C [25]: 98.2%
viability, T/C [26]: 105%
viability, T/C (second compound 10 µM, first compound 0.000316 µM): 96.3%
viability, T/C (second compound 10 µM, first compound 0.001 µM): 93.3%
viability, T/C (second compound 10 µM, first compound 0.00316 µM): 88.1%
viability, T/C (second compound 10 µM, first compound 0.01 µM): 102%
viability, T/C [31]: 87.2%
viability, T/C [32]: 90.7%
